According to patent US12472168B2, “Ring-fused thiazolino 2-pyridones, methods for preparation thereof and their use in the treatment and/or prevention of a disease involving gram-positive bacteria” (Quretech Bio AB, priority 2017, dated 2025):
Converted amounts (≈) assume the structure as drawn.

Columns and labels:
[1] = tested on: MRSA; test: Effect of combination with Oxacillin on MRSA, CFU counts; format: cell-based, Methicillin-resistant Staphylococcus aureus; details: compound 25 μM in combination with Oxacillin 9 μM, 37° C. 18 h
Procedure: (§1) The mixture (200 μL) was incubated at 37° C. for 18 h. A control without the test compound was performed in the same way.

[2] = tested on: E. faecalis; test: MIC and MBC assays; format: cell-based; details: Enterococcus faecalis, compound alone, no antibiotic; for MIC: overnight (18 hrs)
Procedure: (§2) MIC was defined by the lowest concentration of the test compound that inhibits visible growth of pathogen of interest. The optical density of the pathogen of interest culture was measured by OD600.
(§3) MBC was determined colony forming units (CFUs) enumeration by serially diluting and plating bacterial cultures on BHI plates.
(§4) Thus, no antibiotic was used in Table 2.

[3] = tested on: Streptococcus; test: MIC and MBC assays; format: cell-based; details: compound alone, no antibiotic
Procedure: as §2, §3, §4

[4] = tested on: MRSA; test: Effect of compound alone on MRSA, CFU counts; format: cell-based, Methicillin-resistant Staphylococcus aureus; details: compound 25 μM alone, 37° C. 18 h
Procedure: as §1

[5] = tested on: MRSA; test: Minimum Inhibitory Concentration (MIC) and Minimum Bactericidal Concentration (MBC) assays; format: cell-based, Methicillin-resistant Staphylococcus aureus; details: Staphylococcus aureus, compound alone, no antibiotic; for MIC: 18 h, overnight (18 hrs), read-out: MIC
Procedure: as §2, §3, §4

[6] = tested on: E. faecalis OG1RF; test: Combination with Vancomycin in vivo, mouse model of CAUTI, OG1RF (vancomycin sensitive); set-up: species or system Enterococcus faecalis; details: C57BL/6Ncr mice
Procedure: (§5) Mice used in this study were six-week-old female wild-type C57BL/6Ncr mice. Mice were anesthetized by inhalation of isoflurane and implanted with a 5-mm length of platinum-cured silicone catheter. Then, mice were infected immediately following catheter implantation with 50 μl of ˜2×10^7 CFU of E. faecalis OG1RF (FIG. 10A and FIG. 10B) or V583 (FIG. 11A and FIG. 11B) in PBS (1 mL) was introduced in the bladder lumen by transurethral inoculation. […] Mice were sacrificed at 48 hours post-infection by cervical dislocation after anaesthesia inhalation, and the bladders were aseptically harvested. Subsequently, the silicone implant was retrieved from the bladder. Catheters were placed in 1×PBS (1 mL), sonicated for 10 min, to detach E. faecalis and bladders were homogenized in 1×PBS (1 mL). For bacterial enumeration on catheters and bladder, samples were serially diluted and plated on BHI for CFU enumeration.

[7] = tested on: vancomycin resistant E. faecalis V583; test: Combination with Vancomycin in vivo, mouse model of CAUTI, V583 (vancomycin resistant); set-up: species or system Enterococcus faecalis; details: C57BL/6Ncr mice
Procedure: as §5

[8] = tested on: E. faecalis OG1RF; test: Combination with Gentamicin in vivo, mouse model of CAUTI, OG1RF; set-up: species or system Enterococcus faecalis; details: C57BL/6Ncr mice
Procedure: as §5, with “catheter.” for “catheter. Then, mice were infected immediately following catheter implantation with 50 μl of ˜2×10^7 CFU of E. faecalis OG1RF (FIG. 10A and FIG. 10B) or V583 (FIG. 11A and FIG. 11B) in PBS (1 mL) was introduced in the bladder lumen by transurethral inoculation.”

[9] = tested on: E. faecalis OG1RF; test: Stand alone activity in vivo, mouse model of catheter-associated urinary tract infection (CAUTI); set-up: species or system Enterococcus faecalis; details: C57BL/6Ncr mice; 10 mg/kg intraperitoneally 24 hours post-infection; sacrificed 48 hours post-infection; compound alone
Procedure: as §5, with “OG1RF” for “OG1RF (FIG. 10A and FIG. 10B) or V583 (FIG. 11A and FIG. 11B)”, “mL).” for “mL). For bacterial enumeration on catheters and bladder, samples were serially diluted and plated on BHI for CFU enumeration.”
Mice used in this study were six-week-old female wild-type C57BL/6Ncr mice. Mice were anesthetized by inhalation of isoflurane and implanted with a 5-mm length of platinum-cured silicone catheter.
Mice were sacrificed at 48 hours post-infection by cervical dislocation after anaesthesia inhalation, and the bladders were aseptically harvested. Subsequently, the silicone implant was retrieved from the bladder. Catheters were placed in 1×PBS (1 mL), sonicated for 10 min, to detach E. faecalis and bladders were homogenized in 1×PBS (1 mL). For bacterial enumeration on catheters and bladder, samples were serially diluted and plated on BHI for CFU enumeration.

[10] = tested on: Vancomycin Resistant Enterococcus (VRE) strain V583; test: Effect of combination of Example 11 and Vancomycin on VRE (V583), CFU counts; format: cell-based; details: for avg. CFU: VRE V583 OD 0.001, 18 h
Procedure: The mixture (200 μL) was incubated at 37° C. for 18 h Controls were performed without bacteria-vehicle (DMSO), Vancomycin vehicle (water) and BHI controls that use those as treatment to the inoculum, to ensure no previous bacterial contamination in the reagents. Bacterial CFU were counted as standard methods using serial dilution plated on BHI plates to determine the effect of each treatment.

[11] = tested on: E. faecalis OG1RF; test: Effect of combination of Gentamicin and Example 11 on E. faecalis OG1RF in vitro (FIG. 7); format: cell-based, Enterococcus faecalis; details: agent alone
[12] = 3 mg/kg intraperitoneally 24 hours post-infection, agent alone
[13] = combination of Vancomycin and Example 49, 3 mg/kg intraperitoneally
[14] = 2 mg/kg intraperitoneally 24 hours post-infection, agent alone
[15] = combination of Gentamicin and Example 49, 2 mg/kg intraperitoneally

Compound: CCCCOc1ccc(-c2sc3c(OC)c(Cc4cccc5ccccc45)cc(=O)n3c2C(=O)O)cc1C [Example 9, 8-(4-Butoxy-3-methyl-phenyl)-5-methoxy-4-[(1-naphthyl)methyl]-2-oxo-7-thia-1-azabicyclo[4.3.0]nona-3,5,8-triene-9-carboxylic acid]
- CFUs/ml ([1]; MRSA OD 0.1): 2.6E+04 CFUs/ml
- CFUs/ml ([1]; MRSA OD 1): 3E+06 CFUs/ml
- MBC [2]: 12.5 µM (≈ 6.6 µg/mL)
- MIC [2]: 39 µM (≈ 20.6 µg/mL)
- MBC [3]: 8 µM (≈ 4.22 µg/mL)
- CFUs/ml ([4]; MRSA OD 0.001): 8.0E+04 CFUs/ml
- CFUs/ml ([4]; MRSA OD 0.1): 4.4E+06 CFUs/ml
- CFUs/ml ([4]; MRSA OD 1): 5.0E+07 CFUs/ml
- MIC [5]: 17 µM (≈ 8.97 µg/mL)
- MBC [5]: 37 µM (≈ 19.5 µg/mL)

Compound: CCCCCOc1ccc(-c2sc3c(OC)c(Cc4c5ccccc5cc5ccccc45)cc(=O)n3c2C(=O)O)cc1C [Example 49, 7-(anthracen-9-ylmethyl)-8-methoxy-2-(3-methyl-4-(pentyloxy)phenyl)-5-oxo-thiazolo[3,2-a]pyridine-3-carboxylic acid]
- reduction of bacterial titers in the bladders [6, 12]: about 1 log unit
- reduction of bacterial titers on the catheters [6, 12]: about 1 log unit
- reduction of bacterial titers in the bladder [6, 13]: about 2 log units
- reduction of bacterial titers on the catheters [6, 13]: about 2 log units
- reduction of bacterial titers in the bladder [7, 12]: about 0.5 log units
- reduction of bacterial titers on the catheter [7, 12]: no effect
- reduction of bacterial titers in the bladder [7, 13]: about 2 log units
- reduction of bacterial titers on the catheter [7, 13]: about 1 log unit
- reduction of bacterial titers in the bladders [8, 14]: about 0.2 log units
- reduction of bacterial titers on catheters [8, 14]: ~0.5 log units
- reduction of bacterial titers in the bladder [8, 15]: about 2 log units
- reduction of bacterial titers on catheters [8, 15]: about 1.5 log units
- reduction of bacterial titers in the bladder [9]: about 1.5 log units
- reduction of bacterial titers on the catheters [9]: about 1.5 log units

Compound: CN[C@H](CC(C)C)C(=O)N[C@H]1C(=O)N[C@@H](CC(N)=O)C(=O)N[C@H]2C(=O)N[C@H]3C(=O)N[C@H](C(=O)N[C@H](C(=O)O)c4cc(O)cc(O)c4-c4cc3ccc4O)[C@H](O)c3ccc(c(Cl)c3)Oc3cc2cc(c3O[C@@H]2O[C@H](CO)[C@@H](O)[C@H](O)[C@H]2O[C@H]2C[C@](C)(N)[C@H](O)[C@H](C)O2)Oc2ccc(cc2Cl)[C@H]1O [Vancomycin, vancomycin]
- reduction of bacterial titers in the bladders [6, 12]: did not result in reduction
- reduction of bacterial titers on the catheters [6, 12]: did not result in reduction
- reduction of bacterial titers in the bladder [7, 12]: 0.3 log units
- reduction of bacterial titers on the catheter [7, 12]: no effect
- avg. CFU ([10]; Experiment 1, Vancomycin 1 μg/ml alone (Control)): 1.20E+09 CFU
- avg. CFU ([10]; Experiment 1, Vancomycin 2 μg/ml alone (Control)): 1.35E+09 CFU
- avg. CFU ([10]; Experiment 1, Vancomycin 4 μg/ml alone (Control)): 5.00E+08 CFU
- avg. CFU ([10]; Experiment 1, Vancomycin 8 μg/ml alone (Control)): 4.00E+08 CFU
- avg. CFU ([10]; Experiment 1, Vancomycin 16 μg/ml alone (Control)): 3.00E+08 CFU
- avg. CFU ([10]; Experiment 1, Vancomycin 32 μg/ml alone (Control)): 5.50E+08 CFU
- avg. CFU ([10]; Experiment 1, Vancomycin 64 μg/ml alone (Control)): 4.00E+07 CFU
- avg. CFU ([10]; Experiment 2, Vancomycin 1 μg/ml alone (Control)): 1.70E+09 CFU
- avg. CFU ([10]; Experiment 2, Vancomycin 2 μg/ml alone (Control)): 1.40E+09 CFU
- avg. CFU ([10]; Experiment 2, Vancomycin 4 μg/ml alone (Control)): 8.50E+08 CFU
- avg. CFU ([10]; Experiment 2, Vancomycin 8 μg/ml alone (Control)): 8.50E+08 CFU
- avg. CFU ([10]; Experiment 2, Vancomycin 16 μg/ml alone (Control)): 4.50E+08 CFU
- avg. CFU ([10]; Experiment 2, Vancomycin 32 μg/ml alone (Control)): 1.95E+06 CFU
- avg. CFU ([10]; Experiment 2, Vancomycin 64 μg/ml alone (Control)): 6.00E+04 CFU
- effect on the bacterial growth ([10]; Vancomycin alone at a concentration below 64 μg/ml, VRE V583): no or no substantial effect

Compound: gentamicin [reference compound]
- reduction of bacterial titers in the bladders [8, 14]: did not result in reduction
- reduction of bacterial titers on catheters [8, 14]: did not result in reduction
- number of observed bacterial CFUs/ml [11]: did not result in a decrease

Compound: CCCCCOc1ccc(-c2sc3c(OC)c(Cc4cccc5ccccc45)cc(=O)n3c2C(=O)O)cc1C [Example 8, 5-Methoxy-4-[(1-naphthyl)methyl]-2-oxo-8-[4-(pentyloxy)-3-methyl-phenyl]-7-thia-1-azabicyclo[4.3.0]nona-3,5,8-triene-9-carboxylic acid]
- CFUs/ml ([1]; MRSA OD 0.1): 1.7E+04 CFUs/ml
- CFUs/ml ([1]; MRSA OD 1): 1E+06 CFUs/ml
- MBC [2]: 12.5 µM (≈ 6.77 µg/mL)
- MIC [2]: 25 µM (≈ 13.5 µg/mL)
- MBC [3]: 7 µM (≈ 3.79 µg/mL)
- CFUs/ml ([4]; MRSA OD 0.001): 4.0E+05 CFUs/ml
- CFUs/ml ([4]; MRSA OD 0.1): 6.0E+06 CFUs/ml
- CFUs/ml ([4]; MRSA OD 1): 6.0E+07 CFUs/ml
- MIC [5]: 12 µM (≈ 6.5 µg/mL)
- MBC [5]: 13 µM (≈ 7.04 µg/mL)
